In ChEMBL document CHEMBL3112450, “Synthesis and in vitro antitumor evaluation of primary amine substituted quinazoline linked benzimidazole” (Bioorg Med Chem Lett, 2014):

Legend:
Type in all cases: functional
MDA-MB-468 = assay: Cytotoxicity against human MDA-MB-468 cells assessed as cell growth at 10^-5 M after 48 hrs by SRB assay; conditions: MDA-MB-468, 48 h, read-out: Activity
T47D = assay: Cytotoxicity against human T47D cells assessed as cell growth at 10^-5 M after 48 hrs by SRB assay; conditions: read-out: Activity
MDA-MB-231 = assay: Cytotoxicity against human MDA-MB-231 cells assessed as cell growth at 10^-5 M after 48 hrs by SRB assay; conditions: MDA-MB-231, 48 h, read-out: Activity
DU-145 = assay: Cytotoxicity against human DU145 cells assessed as cell growth at 10^-5 M after 48 hrs by SRB assay; conditions: DU-145, 48 h, read-out: Activity
[1] = Cytotoxicity against human UO31 cells assessed as cell growth at 10^-5 M after 48 hrs by SRB assay; conditions: UO-31, 48 h, read-out: Activity
PC-3 = assay: Cytotoxicity against human PC3 cells assessed as cell growth at 10^-5 M after 48 hrs by SRB assay; conditions: PC-3, 48 h, read-out: Activity
TK-10 = assay: Cytotoxicity against human TK10 cells assessed as cell growth at 10^-5 M after 48 hrs by SRB assay; conditions: TK-10, 48 h, read-out: Activity
ACHN = assay: Cytotoxicity against human ACHN cells assessed as cell growth at 10^-5 M after 48 hrs by SRB assay; conditions: read-out: Activity
CAKI-1 = assay: Cytotoxicity against human Caki1 cells assessed as cell growth at 10^-5 M after 48 hrs by SRB assay; conditions: CAKI-1, 48 h, read-out: Activity
UACC-62 = assay: Cytotoxicity against human UACC62 cells assessed as cell growth at 10^-5 M after 48 hrs by SRB assay; conditions: UACC-62, 48 h, read-out: Activity
U-251 = assay: Cytotoxicity against human U251 cells assessed as cell growth at 10^-5 M after 48 hrs by SRB assay; conditions: U-251, 48 h, read-out: Activity
SNB-19 = assay: Cytotoxicity against human SNB19 cells assessed as cell growth at 10^-5 M after 48 hrs by SRB assay; conditions: SNB-19, 48 h, read-out: Activity
SF-539 = assay: Cytotoxicity against human SF539 cells assessed as cell growth at 10^-5 M after 48 hrs by SRB assay; conditions: SF-539, 48 h, read-out: Activity
HCT-116 = assay: Cytotoxicity against human HCT116 cells assessed as cell growth at 10^-5 M after 48 hrs by SRB assay; conditions: HCT-116, 48 h, read-out: Activity
COLO 205 = assay: Cytotoxicity against human COLO205 cells assessed as cell growth at 10^-5 M after 48 hrs by SRB assay; conditions: COLO 205, 48 h, read-out: Activity
NCI-H460 = assay: Cytotoxicity against human NCI-H460 cells assessed as cell growth at 10^-5 M after 48 hrs by SRB assay; conditions: NCI-H460, 48 h, read-out: Activity
NCI-H226 = assay: Cytotoxicity against human NCI-H226 cells assessed as cell growth at 10^-5 M after 48 hrs by SRB assay; conditions: NCI-H226, 48 h, read-out: Activity
HOP-92 = assay: Cytotoxicity against human HOP92 cells assessed as cell growth at 10^-5 M after 48 hrs by SRB assay; conditions: HOP-92, 48 h, read-out: Activity
SR = assay: Cytotoxicity against human SR cells assessed as cell growth at 10^-5 M after 48 hrs by SRB assay; conditions: read-out: Activity
RPMI-8226 = assay: Cytotoxicity against human RPMI8226 cells assessed as cell growth at 10^-5 M after 48 hrs by SRB assay; conditions: RPMI-8226, 48 h, read-out: Activity
CCRF-CEM = assay: Cytotoxicity against human CCRF-CEM cells assessed as cell growth at 10^-5 M after 48 hrs by SRB assay; conditions: read-out: Activity
SF-295 = assay: Cytotoxicity against human SF295 cells assessed as cell growth at 10^-5 M after 48 hrs by SRB assay; conditions: SF-295, 48 h, read-out: Activity

SMILES	growth at 10 µM (MDA-MB-468)	growth at 10 µM (T47D)	growth at 10 µM (MDA-MB-231)	growth at 10 µM (DU-145)	growth at 10 µM [1]	growth at 10 µM (PC-3)	growth at 10 µM (TK-10)	growth at 10 µM (ACHN)	growth at 10 µM (CAKI-1)	growth at 10 µM (UACC-62)	growth at 10 µM (U-251)	growth at 10 µM (SNB-19)	growth at 10 µM (SF-539)	growth at 10 µM (HCT-116)	growth at 10 µM (COLO 205)	growth at 10 µM (NCI-H460)	growth at 10 µM (NCI-H226)	growth at 10 µM (HOP-92)	growth at 10 µM (SR)	growth at 10 µM (RPMI-8226)	other results
C=CCn1c(C)nc2cc(Nc3nc(Nc4ccc5nc(C)n(CC=C)c5c4)nc4ccccc34)ccc21	118%	96%	90%	115%	89.3%	95.8%	130%	104%	101%	95.8%	94.4%	100%	98.6%	98.9%	108%	117%	99.8%	79.8%	106%	98.8%	growth at 10 µM (CCRF-CEM): 94.8%
C=CCn1c(C)nc2ccc(Nc3nc(Sc4ccc(N)cc4)nc4ccccc34)cc21	106%	71.7%	80.5%	114%	89.5%	81.1%	107%	101%	90.5%	83.1%	91.3%	93.2%	108%	93.2%	121%	104%	109%	61.1%	90.8%	59.8%	growth at 10 µM (SF-295): 77.1%; growth at 10 µM (CCRF-CEM): 65.5%
